According to patent US4223034A, “Aniline derivatives” (Beecham Group Limited, priority 1977, dated 1980):
Like-named read-outs stand apart in the source and are kept apart here.

Columns and labels:
[1] = test system: amphetamine induced stereotypy; assay: amphetamine stereotype test (antagonism of amphetamine induced stereotypy); assay type: in vivo, rats; conditions: for ED50: Rattus norvegicus, sc
in vivo [2] = conditions: sc
in vivo [3] = conditions: mouse, po
Method: (§1) a. […] On the anti-catepressan test [based on Costal et al, Europ. […] The LD50 of the compound of Example 3 is about 500 mg/kg per oral in the mouse.

anti-catepressan test = assay type: in vivo; conditions: per oral
Method: as §1

[4] = S.C., Table 1, read-out: ED50, antagonism of amphetamine induced stereotypy

Structure (SMILES): CN(C)CCCN1c2ccccc2Sc2ccc(Cl)cc21 [Chlorpromazine, reference compound]
- ED50 [1, 4]: 1 mg/kg
- Ratio catalepsy / anti-sterotypy (catalepsy; ratio of ED50 values S.C., Table 1): 3
- ED50 (in vivo [2]): 3 mg/kg

Structure (SMILES): COc1cc(N)c(Cl)cc1NC(=O)C1CCN(Cc2ccccc2)CC1 [Example 3, 5-Amino-4-chloro-2-(1^1-benzylpiperidine-4-carboxamido)-anisole]
- LD50 (in vivo [3]): ~500 mg/kg
- ED50 (anti-catepressan test): 5 mg/kg
- ED50 [1, 4]: 0.2 mg/kg
- ED50 ([1]; rats, administered sub-cutaneously, read-out: ED50, amphetamine stereotype test): 0.2 mg/kg
- anti-psychotic or neuroleptic activity (in words) ([1]; as judged by amphetamine induced stereotypy test): have anti-psychotic or neuroleptic activity
- propensity to induce catalepsy relative to anti-stereotypy activity (in words) (catalepsy; in vivo): weaker propensity to induce catalepsy
- Ratio catalepsy / anti-sterotypy (catalepsy; in vivo, sc): 30
- ED50 (in vivo [2]): 6 mg/kg

Structure (SMILES): O=C(CCCN1CCC(O)(c2ccc(Cl)cc2)CC1)c1ccc(F)cc1 [Haloperidol, reference compound]
- ED50 [1, 4]: 0.05 mg/kg
- ED50 (in vivo [2]): 0.3 mg/kg
